Assay results: US20240408119A1, “DELIVERY OF THERAPEUTIC ALKALOID COMPOUNDS” (priority 2022, published 2024)
Where two headings read alike, the source gives them in different places. Marks after values point to notes of the source that are not given here.

Experiments:
[1] = Plasma Stability Assay (Example A3), human plasma; type: in vitro ADME; details: 10 μM, 37° C.; for Human Plasma Metabolite (%): metabolite (mesembrine, 001) accumulated; for Human Plasma Prodrug (%): prodrug remaining
Description: (§1) The data is represented in the table below.

[2] = in vivo; type: in vivo, mouse; details: for half-life / C0 / clearance / Vd: iv, 2 mg/kg; for C0: back extrapolated; for Vd: read-out: Vss
Description: Total fifteen male mice were used in this study with n=3 mice/time point with sparse sampling study design. Animals were administered through intravenous route with solution formulation of 321 at 2 mg/kg dose.
The extraction procedure for plasma/brain samples and the spiked plasma/brain calibration standards were identical (PMSF Stabilized Plasma and Brain used for Preparation of calibration standards): A 20 μL of study sample plasma/brain or spiked plasma/brain calibration standard was added to individual pre-labeled micro-centrifuge tubes followed by 200 μL of internal standard prepared in acetonitrile (Rosuvastatin, 50 ng/mL) was added except for blank, where 200 μL of acetonitrile was added. Samples were vortexed for 5 minutes. Samples were centrifuged for 10 minutes at a speed of 4000 rpm at 4° C. Following centrifugation, 200 μL of clear supernatant was transferred in 96 well plates and analyzed using LC-MS/MS.
Brain samples were diluted (1-part of tissue: 2-part of buffer) and homogenized. The homogenate was submitted for bioanalysis and the concentrations (ng/mL) received were corrected with dilution factor (3×) and the final reported concentrations were represented in ng/g.
The plasma and brain concentration-time data of 321 and 001 were used for the pharmacokinetic analysis.
LLOQ: 321: 1.02 ng/mL for plasma and brain 001: 1.01 ng/mL for plasma and brain

[3] = type: in vitro ADME, human; details: 5 μM, 37° C.; for Human Plasma Metabolite (%): metabolite (mesembrine) accumulated; for Human Plasma Prodrug (%): prodrug remaining
Description: (§2) Each test was carried out in duplicate for each time point; 0 min, 15 min, 30 min, 60 min, 120, 240 min. […]

[4] = type: in vitro ADME, mouse; details: 5 μM, 37° C.; for Mouse Plasma Metabolite (%): metabolite (mesembrine) accumulated; for Mouse Plasma Prodrug (%): prodrug remaining
Description: as §2

[5] = Plasma Stability Assay (Example A3), rat plasma; type: in vitro ADME; details: 10 μM, 37° C.; for Rat Plasma Metabolite (%): metabolite (mesembrine, 001) accumulated; for Rat Plasma Prodrug (%): prodrug remaining
Description: as §1

[6] = Metabolic Stability in Human Hepatocytes; type: in vitro ADME; details: cryopreserved human hepatocytes, 37° C.
Description: A 2.5 uL aliquot of 100 μM test compound was incubated with 247.5 uL of cryopreserved hepatocytes suspended in serum-free incubation medium at 5×10^5 viable cells/mL. The mixture was incubated at 37° C. and shaken at 500 rpm for the designated time points (0.5, 15, 30, 60, 90, or 120 min). At each time point, 25 μL aliquot of incubation mixture was transferred to 125 μL of cold acetonitrile containing internal standard, followed by centrifugation for 30 min at 3,220 g. 100 μL of supernatant was mixed with 100 μL of distilled water for analysis by LC-MS/MS. Peak areas were determined from extracted ion chromatograms and in vitro half-life (t1/2) was determined from the concentration vs time regression slope, in vitro t1/2=0.693/k. Conversion of the in vitro t1/2 (in min) into the in vitro intrinsic clearance (in vitro CLint, in μL/min/10^6 cells) is done using: in vitro CLint=kV/N.

[7] = 321 after 321 IV 2 mg/kg, 0.08 h
[8] = 321 after 321 IV 2 mg/kg, 0.25 h
[9] = 321 after 321 IV 2 mg/kg, 0.5 h
[10] = male, C57BL/6, mouse, in vivo, 321 in brain after 321 IV 2 mg/kg
[11] = male, C57BL/6, mouse, in vivo, 321 in plasma after 321 IV 2 mg/kg

COc1ccc([C@@]23CCC(OP(=O)(OC(C)C)OC(C)C)=C[C@@H]2N(C)CC3)cc1OC [Compound 321, [(3aS,7aS)-3a-(3,4-dimethoxyphenyl)-1-methyl-3,4,5,7a-tetrahydro-2H-indol-6-yl]diisopropyl phosphate]
Human Plasma Metabolite (%) ([1]; 0 min): 0.40%
Human Plasma Metabolite (%) ([1]; 10 min): 0.50%
Human Plasma Metabolite (%) ([1]; 30 min): 0.57%
Human Plasma Metabolite (%) ([1]; 60 min): 0.65%
Human Plasma Metabolite (%) ([1]; 120 min): 0.82%
Human Plasma Metabolite (%) ([1]; 240 min): 0.96%
Human Plasma Prodrug (%) ([1]; 0 min): 100.0%
Human Plasma Prodrug (%) ([1]; 10 min): >99%
Human Plasma Prodrug (%) ([1]; 30 min): >99%
Human Plasma Prodrug (%) ([1]; 60 min): 98.1%
Human Plasma Prodrug (%) ([1]; 120 min): 94.5%
Human Plasma Prodrug (%) ([1]; 240 min): 96.3%
brain concentrations quantifiable up to ([2]; 321 after 321 IV 2 mg/kg): ≤ 0.5 h
plasma concentrations quantifiable up to ([2]; 321 after 321 IV 2 mg/kg): up to 2 h
Brain concentrations (mean) [2, 7]: 99.58 ng/g
Plasma concentrations (mean) [2, 7]: 304.66 ng/mL
Brain concentrations (mean) [2, 8]: 37.11 ng/g
Plasma concentrations (mean) [2, 8]: 104.69 ng/mL
Brain concentrations (mean) [2, 9]: 7.89 ng/g
Plasma concentrations (mean) [2, 9]: 26.16 ng/mL
Plasma concentrations (mean) ([2]; 321 after 321 IV 2 mg/kg, 1 h): 8.57 ng/mL
Plasma concentrations (mean) ([2]; 321 after 321 IV 2 mg/kg, 2 h, average of two values): 1.38^d ng/mL
AUClast ([2]; 321 in brain after 321 IV 2 mg/kg): 27.57 ng·h/g
half-life [2, 10]: 6.6 min
C0 [2, 10]: 158 ng/mL
clearance ([2]; male, C57BL/6, mouse, in vivo, 321 in brain after 321 IV 2 mg/kg, flagged NR (not reportable, very high vs liver blood flow)): 1150 mL/min/kg
Vd [2, 10]: 10.3 L/kg
clearance [2, 11]: 341 mL/min/kg
half-life [2, 11]: 21.6 min
C0 [2, 11]: 504 ng/mL
Vd [2, 11]: 4.8 L/kg
Kp ([2]; male, C57BL/6, mouse, in vivo, 321 after 321 IV 2 mg/kg, read-out: Brain-Kp): 0.28
AUC(0-t) [2, 11]: 97.1 ng·h/mL
Human Plasma Metabolite (%) ([3]; 0 min): 0.08%
Human Plasma Metabolite (%) ([3]; 15 min): 0.29%
Human Plasma Metabolite (%) ([3]; 30 min): 0.40%
Human Plasma Metabolite (%) ([3]; 60 min): 0.49%
Human Plasma Metabolite (%) ([3]; 120 min): 0.67%
Human Plasma Metabolite (%) ([3]; 240 min): 0.61%
Human Plasma Prodrug (%) ([3]; 0 min): 100%
Human Plasma Prodrug (%) ([3]; 15 min): >99%
Human Plasma Prodrug (%) ([3]; 30 min): >99%
Human Plasma Prodrug (%) ([3]; 60 min): >99%
Human Plasma Prodrug (%) ([3]; 120 min): >99%
Human Plasma Prodrug (%) ([3]; 240 min): 78.2%
Mouse Plasma Metabolite (%) ([4]; 0 min): 11.9%
Mouse Plasma Metabolite (%) ([4]; 15 min): 28.4%
Mouse Plasma Metabolite (%) ([4]; 30 min): 38.3%
Mouse Plasma Metabolite (%) ([4]; 60 min): 51.1%
Mouse Plasma Metabolite (%) ([4]; 120 min): 53.7%
Mouse Plasma Metabolite (%) ([4]; 240 min): 55.2%
Mouse Plasma Prodrug (%) ([4]; 0 min): 100%
Mouse Plasma Prodrug (%) ([4]; 15 min): 77.3%
Mouse Plasma Prodrug (%) ([4]; 30 min): 74.5%
Mouse Plasma Prodrug (%) ([4]; 60 min): 58.4%
Mouse Plasma Prodrug (%) ([4]; 120 min): 43.1%
Mouse Plasma Prodrug (%) ([4]; 240 min): 31.7%
Rat Plasma Metabolite (%) ([5]; 0 min): 23.9%
Rat Plasma Metabolite (%) ([5]; 10 min): 53.7%
Rat Plasma Metabolite (%) ([5]; 30 min): 56.0%
Rat Plasma Metabolite (%) ([5]; 60 min): 59.1%
Rat Plasma Metabolite (%) ([5]; 120 min): 59.3%
Rat Plasma Metabolite (%) ([5]; 240 min): 56.7%
Rat Plasma Prodrug (%) ([5]; 0 min): 100.0%
Rat Plasma Prodrug (%) ([5]; 10 min): 74.0%
Rat Plasma Prodrug (%) ([5]; 30 min): 69.8%
Rat Plasma Prodrug (%) ([5]; 60 min): 69.2%
Rat Plasma Prodrug (%) ([5]; 120 min): 68.4%
Rat Plasma Prodrug (%) ([5]; 240 min): 65.7%
half-life at 1 μM [6]: 23 min
hepatocyte CLint at 1 μM [6]: 59.4 µL/min/1e6 cells
